Legend:
BALB/c mice = test: OVA-induced AHR in adult mice treated with glycolipid at 2 weeks of age; assay type: in vivo, mouse; conditions: 2 wk old mice treated i.p. (α-C-GalCer 5 μg, α-GalCer 2 μg, PI57 50 or 100 μg, PBS30 50 μg); AHR induced 6 wks (42 days) later
Method: In FIGS. 6A-6B, two-week-old BALB/c mice (n=6-8/group) (6A) or Tbet^−/− mice (6B) (n=4-6 per group) received 5 μg […] (cGal), 2 μg α-GalCer, or vehicle. After OVA sensitization and challenge, AHR was measured on day 44. In FIG. 6C, donor mice were treated with α-C-GalCer (5 μg) or vehicle i.p. NKT cells served as donors, as in FIG. 4A (n=4 per group). Lung resistance (left) and cell counts in BAL (right) were assessed. […] In FIG. 6E, mice received PI57 (50 μg), α-GalCer (2 μg), or vehicle i.p., and lungs were examined 1 or 14 days later for CD4 and CD8 expression. In FIG. 6F, absolute numbers of CD4^+ NKT and DN NKT subsets from 6E were assessed. In FIG. 6G, BALB/c mice (n=5-8/group) received PI57 or vehicle i.p. Lung resistance (left) and BAL cells (right) were assessed. In FIG. 6H, BALB/c mice treated with PI57 (50 μg), PBS30 (Sphingomonas glycolipid) (50 μg), or vehicle i.p. were assessed for AHR as in 6G. In FIG. 6I, donor mice were treated with PI57 (50 μg) or vehicle i.p. NKT cells served as donors as in FIG. 4A. Lung resistance (left) and BAL cells (right) were assessed (n=4 per group). […] Data represent 2-3 independent experiments. *P<0.05, #P<0.05, ***P<0.001 versus vehicle-OVA (6C, 6G, and 6I), DN NKT saline (6F), and CD4^+ NKT saline (6F).
Induction of AHR and measurement of airway responsiveness in the OVA model.
To induce AHR, BALB/c mice were sensitized with 100 μg of OVA (Sigma-Aldrich) in alum administered i.p (on day 0). After sensitization, mice were exposed to intranasal antigen (50 μg OVA/day) or normal saline for 1 day (day 7; single dose challenge protocol), or for 3 consecutive days (days 7, 8, 9). AHR was assessed on the day after last OVA-challenge. Control mice received i.p. injection of PBS and intranasal administrations of normal saline.

[1] = system: OVA-sensitized BALB/c mice; test: Adoptive transfer of NKT cells from glycolipid-treated mice into OVA-sensitized BALB/c recipients (AHR, BAL); assay type: in vivo, mouse; conditions: OVA-sensitized WT recipients; for AHR in recipients of NKT cells from glycolipid-treated donors: donors treated i.p. at 2 wk (α-C-GalCer 5 μg, PI57 50 μg, or α-GalCer), NKT cells harvested 6 wks later
pulmonary NKT cells = test: Lung NKT cell subsets (CD4+, DN) by FACS after i.p. glycolipid in 2 week-old mice; assay type: in vivo, mouse; conditions: i.p. PI57 50 μg or α-GalCer 2 μg, lung 2 wks later
Method: In FIGS. 6A-6B, two-week-old BALB/c mice (n=6-8/group) (6A) or Tbet^−/− mice (6B) (n=4-6 per group) received 5 μg […] (cGal), 2 μg α-GalCer, or vehicle. After OVA sensitization and challenge, AHR was measured on day 44. In FIG. 6C, donor mice were treated with α-C-GalCer (5 μg) or vehicle i.p. NKT cells served as donors, as in FIG. 4A (n=4 per group). Lung resistance (left) and cell counts in BAL (right) were assessed. […] In FIG. 6E, mice received PI57 (50 μg), α-GalCer (2 μg), or vehicle i.p., and lungs were examined 1 or 14 days later for CD4 and CD8 expression. In FIG. 6F, absolute numbers of CD4^+ NKT and DN NKT subsets from 6E were assessed. In FIG. 6G, BALB/c mice (n=5-8/group) received PI57 or vehicle i.p. Lung resistance (left) and BAL cells (right) were assessed. In FIG. 6H, BALB/c mice treated with PI57 (50 μg), PBS30 (Sphingomonas glycolipid) (50 μg), or vehicle i.p. were assessed for AHR as in 6G. In FIG. 6I, donor mice were treated with PI57 (50 μg) or vehicle i.p. NKT cells served as donors as in FIG. 4A. Lung resistance (left) and BAL cells (right) were assessed (n=4 per group). […]
Cells were preincubated with anti-Fey blocking mAb (2.4G2) and washed before staining. […] Cells were analyzed on a BDCanto flow cytometer (BD Biosciences) using FlowJo 8.3.3 software (Tree Star, Inc.).

NKT cells = conditions: cited from earlier work

**Q.** Which results are given for `CCCCCCCCCCCCCCCCCCCCCCCCCC(=O)N[C@@H](CO[C@H]1O[C@H](CO)[C@H](O)[C@H](O)[C@H]1O)[C@H](O)[C@H](O)CCCCCCCCCCCCCC` [α-GalCer, α-Galactosylceramide]?
**A.** protection against development of OVA-induced AHR (lung resistance) (BALB/c mice): did not prevent OVA induced AHR; AHR in recipients of NKT cells from glycolipid-treated donors [1]: reduced AHR slightly, but this was not statistically significant; number of NKT cells (CD4+ and DN subsets) in the lung (pulmonary NKT cells): increased both CD4^+ and DN NKT cells in the lungs; cytokine synthesis induced (IFN-γ, IL-4) (NKT cells): induces production of both IFN-γ and IL-4

**Q.** Which results are given for `CCCCCCCCCCCCCCCCCCCCCCCCCC(=O)N[C@@H](CC[C@H]1OC(CO)[C@H](O)C(O)C1O)[C@H](O)[C@H](O)CCCCCCCCCCCCCC` (stereo partly drawn) [α-C-GalCer, α-C-Galactosylceramide]?
**A.** protection against development of OVA-induced AHR (lung resistance) (BALB/c mice): protected the mice as adults (42 days later) from the development of OVA-induced AHR; airway inflammation (BAL cells, lung sections) in recipients of NKT cells from glycolipid-treated donors ([1]; donors treated i.p. at 2 wk (α-C-GalCer 5 μg, PI57 50 μg)): protected recipients against the development of AHR and airway inflammation; AHR in recipients of NKT cells from glycolipid-treated donors [1]: protected recipients against the development of AHR; cytokine synthesis induced (IFN-γ, IL-4) (NKT cells): preferentially induces IFN-γ but not IL-4 synthesis
